The values below come from ChEMBL document CHEMBL3352244, “Synthesis and biological activity of 5-(4-methoxyphenyl)-oxazole derivatives” (Bioorg Med Chem Lett, 2015).

≈ marks a conversion by molar mass, not a printed value.

The test system of assay [1] is Caenorhabditis elegans. Nature of the assay: Inhibition of hatch of eggs newly spawned by adult Caenorhabditis elegans measured on day 3. The note with it: 72 h. Type of assay: functional.
The subject of assay [2] is Caenorhabditis elegans. Nature of the assay: Growth inhibition of adult Caenorhabditis elegans measured on day 3 by microscopy. Type of assay: functional. The conditions noted are these: 72 h.
Assay [3] concerns Escherichia coli. As to the kind of experiment: Antimicrobial activity against Escherichia coli incubated at 37 degC for 24 hrs. The class given is functional, organism-based.
Assay [4] has as its target T1, D-amino-acid oxidase (Caenorhabditis elegans, UniProt Q95XG9).
T1 sequence (Q95XG9 whole entry): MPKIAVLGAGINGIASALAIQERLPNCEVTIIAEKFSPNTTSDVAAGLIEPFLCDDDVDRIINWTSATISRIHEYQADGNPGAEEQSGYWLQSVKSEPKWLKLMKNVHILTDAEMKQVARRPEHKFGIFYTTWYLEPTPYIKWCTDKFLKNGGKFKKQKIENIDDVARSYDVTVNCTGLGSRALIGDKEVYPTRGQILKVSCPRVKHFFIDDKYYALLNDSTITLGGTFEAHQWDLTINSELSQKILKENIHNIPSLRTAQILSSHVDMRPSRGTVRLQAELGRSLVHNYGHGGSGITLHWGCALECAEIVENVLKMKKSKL
Nature of the assay: Inhibition of Caenorhabditis elegans DAO incubated for 10 mins.

Assay [5] relates to Caenorhabditis elegans. As to the kind of experiment: Inhibition of hatch of eggs newly spawned by adult Caenorhabditis elegans at 17 uM measured on day 3. Type of assay: functional. The note with it: 72 h.
For assay [6], the system named is Plasmodium falciparum. Nature of the assay: Antimalarial activity against Plasmodium falciparum K1 after 72 hrs by parasite LDH assay. Type of assay: functional, organism-based. The note with it: K1, 72 h.
Assay [7] has as its system Pyricularia oryzae. Nature of the assay: Antimicrobial activity against Magnaporthe oryzae incubated at 28 degC for 48 hrs. Type of assay: functional, organism-based.
The test system of assay [8] is Candida albicans. As to the kind of experiment: Antimicrobial activity against Candida albicans incubated at 28 degC for 24 hrs. The class given is functional, organism-based.
The test system of assay [9] is Aspergillus fumigatus. As to the kind of experiment: Antimicrobial activity against Aspergillus fumigatus incubated at 28 degC for 24 hrs. Type of assay: functional, organism-based.
The test system of assay [10] is Staphylococcus aureus. As to the kind of experiment: Antimicrobial activity against Staphylococcus aureus incubated at 37 degC for 24 hrs. The class given is functional, organism-based.
Assay [11] deals with HeLa. Nature of the assay: Cytotoxic activity against human HeLa cells after 48 hrs by WST8 assay. Type of assay: functional, cell-based.
Assay [12] is described as follows: Cytotoxic activity against human HL60 cells after 48 hrs by WST8 assay. The class given is functional, cell-based. The conditions noted are these: HL-60, 48 h. For orientation: Tetrazolium dyes change colour on reduction, which living cells bring about.
For assay [13], the target named is T2, D-aspartate oxidase 3 (Caenorhabditis elegans, UniProt O01739).
T2 sequence (O01739 whole entry): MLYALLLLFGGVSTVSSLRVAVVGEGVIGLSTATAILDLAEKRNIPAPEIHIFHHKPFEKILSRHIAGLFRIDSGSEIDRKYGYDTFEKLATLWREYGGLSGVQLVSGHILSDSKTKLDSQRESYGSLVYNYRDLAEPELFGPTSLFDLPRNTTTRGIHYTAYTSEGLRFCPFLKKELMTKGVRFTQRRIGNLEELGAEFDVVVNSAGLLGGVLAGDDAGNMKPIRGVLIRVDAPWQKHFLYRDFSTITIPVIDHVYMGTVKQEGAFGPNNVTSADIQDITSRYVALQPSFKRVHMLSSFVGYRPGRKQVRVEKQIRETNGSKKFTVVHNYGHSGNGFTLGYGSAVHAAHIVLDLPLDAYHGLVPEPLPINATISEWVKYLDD
As to the kind of experiment: Inhibition of Caenorhabditis elegans DDO3 incubated for 10 mins.

Take `Cc1ccc(-c2cnco2)cc1`: the MIC in assay [1] and in assay [2] was over 100 µM each time.

In the case of `COc1ccc(-c2c[nH]cn2)cc1`, the MIC in assay [1] and in [2] was over 100 µM in each case.

For `COc1ccc(-c2cnco2)cc1`, the EC50 (commonly the concentration at which the effect is half-maximal) in assay [3] was over 100 µM; in assay [4], over 100 µM; in [6], over 100 µM; in assay [7], 4 µM; in assay [8], over 100 µM; in assay [9], over 100 µM. In addition, the EC50 in assay [10] is over 100 µM; in assay [11], 30 µM; in assay [12] it was over 100 µM; in assay [13] it was over 100 µM. Also, the MIC (in general, the least concentration at which growth counts as inhibited) is 17 µM (≈ 2.98 µg/mL) in assay [1] and 34 µM (≈ 5.96 µg/mL) in [2]. In [5], the inhibition – broadly, the change of the read-out against control, counted positive when it falls – at 17 µM was found to be 100%.

On to `COc1cccc(-c2cnco2)c1`, for which the MIC in assay [1] and in assay [2] was over 100 µM each time.

With `COc1ccccc1-c1cnco1`, the MIC in [1] and in [2] was over 100 µM in each case.

`COc1ccc(-c2cocn2)cc1`: the MIC in [1] and in assay [2] was over 100 µM each time.

In the case of `c1ccc(-c2cnco2)cc1`, the MIC in assay [1] and in [2] was over 100 µM in each case.

As for `Oc1ccc(-c2cnco2)cc1`, the EC50 in assay [3] was over 100 µM; in [4], over 100 µM; in assay [6] it was over 100 µM; in assay [7] it was 15 µM; in assay [8], over 100 µM; in assay [9] it was over 100 µM. Also, the EC50 in assay [10] was over 100 µM; in assay [11], 51 µM; in assay [12], over 100 µM; in assay [13], over 100 µM. Further, the MIC in [1] and in assay [2] was over 100 µM in each case.

Regarding `CC(=O)Oc1ccc(-c2cnco2)cc1`, the MIC in assay [1] and in assay [2] was over 100 µM each time.

With `CCc1ccc(-c2cnco2)cc1`, the MIC in assay [1] and in [2] was over 100 µM each time.

In the case of `COC(=O)c1ccc(-c2cnco2)cc1`, the MIC in assay [1] and in [2] was over 100 µM each time.

For `O=C(O)c1ccc(-c2cnco2)cc1`, the MIC in [1] and in [2] was over 100 µM throughout.

For `N#Cc1ccc(-c2cnco2)cc1`, the MIC in [1] is 100 µM (≈ 17 µg/mL); in [2], over 100 µM.

With `CN(C)c1ccc(-c2cnco2)cc1`, the values for the MIC in assay [1] and in assay [2] were over 100 µM and 50 µM (≈ 9.41 µg/mL), respectively.

Turning to `COC(=O)c1cc(-c2cnco2)ccc1OC`, the MIC in assay [1] and in assay [2] was over 100 µM in each case.

In the case of `COc1ccc(-c2cnco2)cc1C(=O)O`, the MIC in [1] and in assay [2] was over 100 µM in each case.

As for `COc1ccc(-c2ncco2)cc1`, the minimal inhibitory concentration (MIC) is over 100 µM in assay [1] and 100 µM (≈ 17.5 µg/mL) in [2].

As to `CCOC(=O)c1ccc(-c2ncc(-c3ccc(OC)cc3)o2)cc1`, the minimal inhibitory concentration (MIC) in assay [1] and in [2] was over 100 µM throughout.

Consider `COc1ccc(-c2cnc(-c3ccc(C(=O)O)cc3)o2)cc1`, for which the MIC in assay [1] and in assay [2] was over 100 µM throughout.

As for `COc1ccc(-c2cncs2)cc1`, the MIC was over 100 µM in assay [1] and 50 µM (≈ 9.56 µg/mL) in [2].
